# Laboratory results published in patent US12070444B2, “Modulation of molecular markers using S-equol” (Board of Regents, The University of Texas System, priority 2020, dated 2024).
# Entries after “also recorded” stand apart in the source; their conditions may differ.
# Assays:
# [1] = test system: MDA-MB-231 cell-derived xenograft tumor; assay: MDA-MB-231 xenograft in athymic nude mice; format: in vivo
# Protocol: Further work in a preclinical animal model supports the notion of using S-equol to treat TNBC breast cancer. In immunocompromised mouse xenograft experiments, which used MDA-MB-231, a human TNBC breast cancer cell line, growth of tumors was suppressed by 60% with S-equol treatment compared to control. 5×10^6 MDA-MB-231 cells were injected orthotopically into mammary gland fat pads of 6 week-old female athymic nude mice (Harlan). When the tumor masses reached 50 to 80 mm^3 (about one week after the inoculation), the mice were given daily subcutaneous injections of S-equol (20 or 60 mg/kg per day) or PBS as a vehicle control. Tumor development was followed by caliper measurements along two orthogonal axes: length (L) and width (W) and volume (V) was estimated by the formula V=[L×(W^2)]/2. […] Representative tumor sections from vehicle control and S-equol-treated mice were tested for Ki-67 expression to assess cell proliferation, and for ERβ ([…]. Statistical significance in the experiments was assessed by two-tailed Student's t test. In all assays, p<0.05 was considered statistically significant. The results of these experiments are shown in FIGS. 16 and 20. See, Yuan et al. 2016 listed below, which is incorporated by reference herein for all purposes.
# ERβ pY36 = molecular target: T1, ERβ pY36 (Homo sapiens, UniProt Q92731); assay: pY36-specific phosphorylation signal of ERβ in MDA-MB-231 cells; format: cell-based; conditions: MDA-MB-231 cells (FIG. 16A)
# T1 construct: host or cells: MDA-MB-231 (human TNBC cell line)
# Description: FIG. 16. […] See, Yuan et al. (2016) listed below, which is incorporated by reference herein for all purposes.
# melanoma = assay: Pilot biomarker clinical study of S-equol in melanoma (Example 7, present tense); format: in vivo, human; conditions: melanoma patients, oral S-equol 50 mg twice daily 10-21 days
# Protocol: A pilot biomarker clinical study is performed in 20 subjects with documented melanoma to determine the effect of the ERβ agonist S-equol on Ki67 an indicator of tumor cell proliferation. Tumor cell proliferation is measured by immunohistological staining for Ki-67. Ki-67 is encoded by the gene MKI67 gene and is required to maintain individual mitotic chromosomes dispersed in the cytoplasm following nuclear envelope disassembly. Measuring the fraction of Ki-67-positive cells in a tumor is known to be a reliable parameter for assessing cancer patient prognosis. Subjects with TNBC are known to have very high levels of Ki67.
# Patients enrolled in the study receive a history, physical, laboratory assessment, radiological imaging, and diagnostic biopsies. Immunohistochemistry (IHC) of Ki67 (proliferation marker), total ERβ, and pY36-ERβ (phosphorylated ERβ), B7H1 (also known as PDL-1) and MIA and S100B are conducted using core needle biopsy tissue samples prior to treatment. Patients are given oral S-equol 50 mg, twice daily for approximately two weeks (10-21 days) prior to the scheduled oncologic surgeries or start of primary systemic therapy. […]
# A standard procedure for acquiring core biopsy is utilized for determining melanoma prior to enrollment. […] The tissue samples are sent for staining of total and pY36, ERβ and Ki67, and analyzed. […]
# rat hippocampal neurons = conditions: cited from earlier work
# cytochrome oxidase (COX) = conditions: brains from ovariectomized mice; cited from earlier work
# T1 sequence (Q92731 whole entry): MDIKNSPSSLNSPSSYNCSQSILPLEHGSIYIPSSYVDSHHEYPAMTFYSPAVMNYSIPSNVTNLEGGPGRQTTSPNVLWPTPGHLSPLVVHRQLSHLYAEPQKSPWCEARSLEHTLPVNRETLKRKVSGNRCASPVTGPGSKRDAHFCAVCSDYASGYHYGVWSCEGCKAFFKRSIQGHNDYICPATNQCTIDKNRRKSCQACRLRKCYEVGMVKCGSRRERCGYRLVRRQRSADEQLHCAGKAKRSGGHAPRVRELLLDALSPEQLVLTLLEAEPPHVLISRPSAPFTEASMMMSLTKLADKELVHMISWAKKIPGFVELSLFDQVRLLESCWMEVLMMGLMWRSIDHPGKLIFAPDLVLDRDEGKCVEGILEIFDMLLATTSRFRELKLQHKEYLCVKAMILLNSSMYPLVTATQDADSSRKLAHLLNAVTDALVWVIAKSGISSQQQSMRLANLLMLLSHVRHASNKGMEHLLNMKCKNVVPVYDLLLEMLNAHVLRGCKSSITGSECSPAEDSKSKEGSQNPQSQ
smiles,measurement,setting,value
Oc1ccc([C@H]2COc3cc(O)ccc3C2)cc1 [S-equol],xenograft tumor growth,"[1]; S-equol vs vehicle (FIG. 16B, FIG. 20)",inhibited; also recorded: reduces the growth of TNBC cells
same,growth of tumors suppressed compared to control,[1]; daily s.c. S-equol 20 or 60 mg/kg per day vs PBS,60%
same,pY36-specific phosphorylation signal,ERβ pY36,enhanced
same,change in Ki67 pre- vs post-treatment (in words),melanoma,measurable decrease in Ki67; also recorded: measurable decline in Ki67
same,respiratory and maximal glycolysis fluxes,rat hippocampal neurons,increase
same,cytochrome oxidase (COX) activity and COX1 protein levels,cytochrome oxidase (COX),increase
